Our source for the AC50 values is ChEMBL document CHEMBL5291721, “A preclinical secondary pharmacology resource illuminates target-adverse drug reaction associations of marketed drugs” (Nat Commun, 2023).

For experiment [1], the target named is T1, Alpha-2A adrenergic receptor (Homo sapiens, UniProt P08913).
T1 sequence (P08913 whole entry): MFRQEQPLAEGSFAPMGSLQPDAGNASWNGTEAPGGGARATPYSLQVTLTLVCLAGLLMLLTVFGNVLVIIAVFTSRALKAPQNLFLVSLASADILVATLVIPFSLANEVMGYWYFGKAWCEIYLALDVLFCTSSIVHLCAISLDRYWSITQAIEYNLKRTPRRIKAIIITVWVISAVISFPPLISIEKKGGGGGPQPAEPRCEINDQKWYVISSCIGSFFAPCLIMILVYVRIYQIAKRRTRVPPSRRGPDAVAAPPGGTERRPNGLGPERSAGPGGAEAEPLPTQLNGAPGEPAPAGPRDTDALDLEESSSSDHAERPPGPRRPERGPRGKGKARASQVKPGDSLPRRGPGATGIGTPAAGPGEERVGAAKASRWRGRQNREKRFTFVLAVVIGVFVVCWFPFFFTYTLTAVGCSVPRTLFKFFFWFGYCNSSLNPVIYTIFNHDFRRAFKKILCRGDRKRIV
The experiment is classed as functional, cell-based.

The target of experiment [2] is Glutamate receptor ionotropic, NMDA 1 (Rattus norvegicus, UniProt P35439).
Experiment [3] has as its target Muscarinic acetylcholine receptor M3 (Homo sapiens, UniProt P20309).
The target of experiment [4] is T2, Cholecystokinin receptor type A (Homo sapiens, UniProt P32238).
T2 sequence (P32238 whole entry): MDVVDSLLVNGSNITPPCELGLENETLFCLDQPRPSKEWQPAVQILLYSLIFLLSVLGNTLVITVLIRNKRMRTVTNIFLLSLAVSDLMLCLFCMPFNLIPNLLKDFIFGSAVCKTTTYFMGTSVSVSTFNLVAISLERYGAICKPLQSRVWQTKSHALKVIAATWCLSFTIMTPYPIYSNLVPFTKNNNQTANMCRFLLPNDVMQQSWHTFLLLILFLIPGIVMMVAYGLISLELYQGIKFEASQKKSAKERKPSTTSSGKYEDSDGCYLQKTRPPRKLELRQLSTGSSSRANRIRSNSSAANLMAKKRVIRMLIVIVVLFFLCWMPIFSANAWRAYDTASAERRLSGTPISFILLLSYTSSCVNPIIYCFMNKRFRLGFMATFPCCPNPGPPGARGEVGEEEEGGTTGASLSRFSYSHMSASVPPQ

A further experiment has as its target Motilin receptor (Homo sapiens, UniProt O43193).
The target of experiment [5] is 3',5'-cyclic-AMP phosphodiesterase 4D (Homo sapiens, UniProt Q08499). Type of experiment: functional.
3',5'-cyclic-AMP phosphodiesterase 4D, sequence (Q08499 whole entry): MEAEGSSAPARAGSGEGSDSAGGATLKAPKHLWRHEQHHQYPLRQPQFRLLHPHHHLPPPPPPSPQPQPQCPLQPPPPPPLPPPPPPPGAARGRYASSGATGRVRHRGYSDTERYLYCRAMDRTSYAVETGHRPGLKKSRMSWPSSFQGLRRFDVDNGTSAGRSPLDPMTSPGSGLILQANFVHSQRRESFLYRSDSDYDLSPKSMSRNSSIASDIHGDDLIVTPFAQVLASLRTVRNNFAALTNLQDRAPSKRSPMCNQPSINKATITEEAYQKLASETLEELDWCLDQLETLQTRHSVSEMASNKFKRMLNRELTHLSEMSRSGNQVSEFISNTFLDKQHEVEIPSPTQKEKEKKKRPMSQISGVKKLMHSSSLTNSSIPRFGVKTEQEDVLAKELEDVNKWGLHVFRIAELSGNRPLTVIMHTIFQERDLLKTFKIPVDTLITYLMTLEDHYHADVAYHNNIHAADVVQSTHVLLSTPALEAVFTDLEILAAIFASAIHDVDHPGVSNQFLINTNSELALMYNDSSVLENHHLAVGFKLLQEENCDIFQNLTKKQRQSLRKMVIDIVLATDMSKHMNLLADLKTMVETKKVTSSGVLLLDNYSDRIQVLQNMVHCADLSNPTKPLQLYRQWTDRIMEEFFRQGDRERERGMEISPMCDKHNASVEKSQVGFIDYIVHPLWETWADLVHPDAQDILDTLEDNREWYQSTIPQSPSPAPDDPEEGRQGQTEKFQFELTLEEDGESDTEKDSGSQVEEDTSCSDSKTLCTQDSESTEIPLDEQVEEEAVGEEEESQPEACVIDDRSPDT
Experiment [6] has as its target T3, 5-hydroxytryptamine receptor 1A (Homo sapiens, UniProt P08908).
T3 sequence (P08908 whole entry): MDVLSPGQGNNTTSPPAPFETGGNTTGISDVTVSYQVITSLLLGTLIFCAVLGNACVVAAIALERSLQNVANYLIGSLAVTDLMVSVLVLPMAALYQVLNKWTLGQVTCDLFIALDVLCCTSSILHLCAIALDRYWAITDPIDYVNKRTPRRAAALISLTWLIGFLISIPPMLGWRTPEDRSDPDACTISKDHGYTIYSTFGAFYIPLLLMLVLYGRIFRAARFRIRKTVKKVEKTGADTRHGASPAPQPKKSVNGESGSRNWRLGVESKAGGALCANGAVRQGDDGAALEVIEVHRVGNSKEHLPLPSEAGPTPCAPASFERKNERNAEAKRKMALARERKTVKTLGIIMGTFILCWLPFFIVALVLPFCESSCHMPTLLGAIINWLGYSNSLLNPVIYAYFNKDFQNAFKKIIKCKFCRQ
The experiment is classed as functional, cell-based.

For experiment [7], the target named is T4, Neuropeptide Y receptor type 1 (Homo sapiens, UniProt P25929).
T4 sequence (P25929 whole entry): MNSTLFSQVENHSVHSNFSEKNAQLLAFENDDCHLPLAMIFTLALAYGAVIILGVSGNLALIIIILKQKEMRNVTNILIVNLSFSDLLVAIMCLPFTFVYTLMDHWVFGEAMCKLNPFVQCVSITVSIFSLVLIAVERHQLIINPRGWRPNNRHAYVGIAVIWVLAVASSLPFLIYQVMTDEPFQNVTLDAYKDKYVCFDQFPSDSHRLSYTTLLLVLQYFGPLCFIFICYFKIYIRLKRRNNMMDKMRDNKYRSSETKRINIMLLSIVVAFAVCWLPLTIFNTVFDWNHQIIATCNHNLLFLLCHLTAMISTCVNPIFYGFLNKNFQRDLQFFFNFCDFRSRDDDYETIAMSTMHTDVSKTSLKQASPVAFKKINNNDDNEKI

A further experiment concerns the target Melanocortin receptor 3 (Homo sapiens, UniProt P41968).
In experiment [8] the target is T5, Gastrin/cholecystokinin type B receptor (Homo sapiens, UniProt P32239).
T5 sequence (P32239 whole entry): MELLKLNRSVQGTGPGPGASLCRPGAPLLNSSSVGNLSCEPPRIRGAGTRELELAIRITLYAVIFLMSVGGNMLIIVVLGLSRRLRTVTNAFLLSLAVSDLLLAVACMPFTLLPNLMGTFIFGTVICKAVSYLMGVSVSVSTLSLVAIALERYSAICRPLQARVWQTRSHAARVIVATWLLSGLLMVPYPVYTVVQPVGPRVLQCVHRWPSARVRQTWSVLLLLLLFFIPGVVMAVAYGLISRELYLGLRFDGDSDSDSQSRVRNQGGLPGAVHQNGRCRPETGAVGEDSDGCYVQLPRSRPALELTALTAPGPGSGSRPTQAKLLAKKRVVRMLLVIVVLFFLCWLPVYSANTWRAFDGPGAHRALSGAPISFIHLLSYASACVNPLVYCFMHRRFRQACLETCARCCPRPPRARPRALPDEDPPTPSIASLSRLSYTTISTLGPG

Structures are written as SMILES.
Further: assay procedure not described here.

Muscarinic acetylcholine receptor M3, sequence (P20309 whole entry): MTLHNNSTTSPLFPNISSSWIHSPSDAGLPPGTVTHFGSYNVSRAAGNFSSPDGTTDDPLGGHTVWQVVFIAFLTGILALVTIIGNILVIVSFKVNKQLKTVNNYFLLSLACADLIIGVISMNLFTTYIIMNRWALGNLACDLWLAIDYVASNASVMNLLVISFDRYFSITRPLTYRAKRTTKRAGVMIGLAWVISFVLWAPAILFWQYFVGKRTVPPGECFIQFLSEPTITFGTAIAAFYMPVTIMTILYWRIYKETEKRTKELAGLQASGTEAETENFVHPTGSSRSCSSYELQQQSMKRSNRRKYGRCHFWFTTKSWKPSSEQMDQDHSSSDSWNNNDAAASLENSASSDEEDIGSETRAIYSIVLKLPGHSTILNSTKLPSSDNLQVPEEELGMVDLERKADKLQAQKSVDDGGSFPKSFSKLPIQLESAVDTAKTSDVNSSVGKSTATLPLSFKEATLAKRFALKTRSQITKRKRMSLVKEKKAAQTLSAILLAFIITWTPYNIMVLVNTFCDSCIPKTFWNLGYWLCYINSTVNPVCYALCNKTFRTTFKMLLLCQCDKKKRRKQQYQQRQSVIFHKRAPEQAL
Motilin receptor, sequence (O43193 whole entry): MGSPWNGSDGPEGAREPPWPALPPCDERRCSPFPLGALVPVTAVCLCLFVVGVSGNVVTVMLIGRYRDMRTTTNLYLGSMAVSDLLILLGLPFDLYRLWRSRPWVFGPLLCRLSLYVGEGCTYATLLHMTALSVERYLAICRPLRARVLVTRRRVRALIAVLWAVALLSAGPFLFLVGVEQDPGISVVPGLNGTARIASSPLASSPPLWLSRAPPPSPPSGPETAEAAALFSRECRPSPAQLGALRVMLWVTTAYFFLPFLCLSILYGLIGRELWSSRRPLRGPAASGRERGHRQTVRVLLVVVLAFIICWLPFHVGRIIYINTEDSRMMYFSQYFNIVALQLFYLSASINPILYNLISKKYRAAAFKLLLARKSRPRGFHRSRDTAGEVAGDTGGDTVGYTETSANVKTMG
Melanocortin receptor 3, sequence (P41968 whole entry): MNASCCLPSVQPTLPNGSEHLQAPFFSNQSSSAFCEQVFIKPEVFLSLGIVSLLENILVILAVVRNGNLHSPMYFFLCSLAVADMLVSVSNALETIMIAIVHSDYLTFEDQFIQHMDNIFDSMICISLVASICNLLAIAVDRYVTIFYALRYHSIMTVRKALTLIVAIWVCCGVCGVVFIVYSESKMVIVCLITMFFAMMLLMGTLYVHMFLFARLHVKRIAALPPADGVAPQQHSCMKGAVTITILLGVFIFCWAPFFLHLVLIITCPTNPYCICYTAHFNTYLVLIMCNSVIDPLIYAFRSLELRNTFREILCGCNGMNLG

Take `N#Cc1ccccc1-c1cc(-c2ccccn2)cn(-c2ccccc2)c1=O`: the half-maximal activity concentration (AC50) in experiment [1] is above 30 µM; in experiment [2], above 30 µM; in experiment [3], above 30 µM; in [4] it was above 30 µM; on Motilin receptor, above 30 µM; in experiment [5] it was 13 µM. The AC50 (in [6]; in experiment [7]; on Melanocortin receptor 3; in experiment [8]) was above 30 µM throughout.

In the case of `N=C(N)NCCCCCCC(=O)NC(O)C(=O)NCCCCNCCCN` (centres undefined), the AC50 (in [1]; in [2]; in experiment [3]; in experiment [4]; on Motilin receptor; in experiment [5]) was above 30 µM each time. The AC50 (in experiment [6]; in [7]; on Melanocortin receptor 3; in [8]) was above 30 µM throughout.

Consider `O=C(CCCN1CCC(n2c(O)nc3ccccc32)CC1)c1ccc(F)cc1` [BENPERIDOL], for which the AC50 in experiment [1] is above 30 µM; in experiment [2] it was above 30 µM; in experiment [3], 12 µM; in [4] it was above 30 µM; at Motilin receptor, 26 µM; in [5] it was above 30 µM. Also, the concentration at half-maximal activity (AC50) in experiment [6] is 0.166 µM; in experiment [7], above 30 µM; on Melanocortin receptor 3 it was above 30 µM; in experiment [8] it was above 30 µM.

With `CCC(=O)OCC(=O)[C@@]1(OC(=O)CC)[C@@H](C)C[C@H]2[C@@H]3CCC4=CC(=O)C=C[C@]4(C)[C@@]3(F)[C@@H](O)C[C@@]21C` [BETAMETHASONE DIPROPIONATE], the concentration at half-maximal activity (AC50) (in experiment [1]; in [2]; in experiment [3]; in [4]; on Motilin receptor; in experiment [5]) was above 30 µM throughout. In addition, the concentration at half-maximal activity (AC50) (in experiment [6]; in experiment [7]; at Melanocortin receptor 3; in [8]) was above 30 µM each time.

On to `CCCCC1(CC)C(=O)NC(=O)NC1=O` [BUTETHAL], for which the half-maximal activity concentration (AC50) (in experiment [1]; in [2]; in experiment [3]; in experiment [4]; on Motilin receptor; in [5]) was above 30 µM each time. Moreover, the AC50 (in experiment [6]; in [7]; at Melanocortin receptor 3; in [8]) was above 30 µM throughout.

On to `CCOC(=O)NNc1ccc(N(CC)CC(C)O)nn1` (centres undefined) [CADRALAZINE], for which the half-maximal activity concentration (AC50) (in [1]; in experiment [2]; in experiment [3]; in experiment [4]; on Motilin receptor; in experiment [5]) was above 30 µM throughout. In addition, the concentration at half-maximal activity (AC50) was 27 µM in experiment [6], above 30 µM in [7], above 30 µM on Melanocortin receptor 3 and above 30 µM in experiment [8].

Turning to `CCCC(C)(COC(N)=O)COC(=O)NC(C)C` (centres undefined) [CARISOPRODOL], the half-maximal activity concentration (AC50) in experiment [1] is above 10 µM; in experiment [2], above 10 µM; in [3], above 10 µM; in [4], above 30 µM; at Motilin receptor it was above 10 µM; in [5], above 30 µM. The AC50 in [6] was above 10 µM; in experiment [7], above 30 µM; at Melanocortin receptor 3, above 30 µM; in experiment [8] it was above 30 µM.

Turning to `O=C(O)c1ccccc1OP(=O)(O)O` [FOSFOSAL], the AC50 (in experiment [1]; in experiment [3]; in experiment [4]; at Motilin receptor; in experiment [5]; in experiment [6]) was above 30 µM throughout. Also, the AC50 (in [7]; on Melanocortin receptor 3; in [8]) was above 30 µM throughout.

As to `CC(=O)Nc1c(I)c(C(=O)N[C@H]2C(O)O[C@H](CO)[C@@H](O)[C@@H]2O)c(I)c(N(C)C(C)=O)c1I` (some centres undefined) [METRIZAMIDE], the AC50 was above 10 µM in experiment [1]; above 10 µM in [2]; above 30 µM in [3]; above 10 µM in experiment [4]; above 10 µM on Motilin receptor; above 30 µM in [5]. For the same compound, the concentration at half-maximal activity (AC50) (in experiment [6]; in experiment [7]; on Melanocortin receptor 3) was above 10 µM throughout.

With `CC(CCc1ccccc1)NC(C)C(O)c1ccc(O)cc1` (centres undefined) [NYLIDRIN], the half-maximal activity concentration (AC50) in experiment [1] is above 10 µM; in experiment [3], above 10 µM; in [4], above 30 µM; on Motilin receptor, above 10 µM; in experiment [5] it was above 30 µM; in [6], 12 µM. Also, the AC50 (in experiment [7]; at Melanocortin receptor 3; in [8]) was above 30 µM throughout.

Regarding `CC(=O)O[C@H]1C[C@@H]2CC[C@@H]3[C@H](CC[C@@]4(C)[C@H]3C[C@H]([N+]3(C)CCCCC3)[C@@H]4OC(C)=O)[C@@]2(C)C[C@@H]1[N+]1(C)CCCCC1` [PANCURONIUM], the AC50 in experiment [1] is above 10 µM; in [2], above 10 µM; in [3], above 30 µM; in [4], above 10 µM; at Motilin receptor it was above 10 µM; in [5], above 30 µM. Besides, the AC50 (in experiment [6]; in [7]; on Melanocortin receptor 3) was above 10 µM each time.

For the compound `CC1(C)C(C=C(Cl)Cl)C1C(=O)OCc1cccc(Oc2ccccc2)c1` (centres undefined) [PERMETHRIN], the AC50 was above 10 µM in experiment [1]; above 10 µM in experiment [2]; above 30 µM in [3]; above 10 µM in experiment [4]; above 10 µM at Motilin receptor; above 30 µM in experiment [5]. Moreover, the AC50 (in experiment [6]; in experiment [7]; at Melanocortin receptor 3) was above 10 µM throughout.

In the case of `NC(=O)CCC/N=C(\c1ccc(Cl)cc1)c1cc(F)ccc1O` [PROGABIDE], the AC50 in experiment [1] was above 10 µM; in [2], above 10 µM; in [3], above 30 µM; in [4], above 10 µM; at Motilin receptor, above 10 µM; in experiment [5], above 10 µM. For the same compound, the half-maximal activity concentration (AC50) (in [6]; in experiment [7]; at Melanocortin receptor 3) was above 10 µM in each case.
